According to patent US10047345B2, “Culturing of mesenchymal stem cells with FGF4 and nicotinamide” (Gamida-Cell Ltd., priority 2012, dated 2018):
Entries after “also recorded” stand apart in the source; their conditions may differ.

Legend:
mesenchymal stem cells [1] = experiment: CFU-F assay; type: cell-based, human; conditions: 5 mM nicotinamide
Experimental: Cultured MSCs were seeded in 6-well plates at density of 50-100 cells/cm^2 and maintained with DMEM and 10% FBS. After 14 days the cells were fixed using 10% cold Formalin (Sigma) and stained with Harris Hematoxylin (Sigma). Clones (cluster of more than 50 cells with evident epicenter) are stained blue-purple and counted using microscope.

[2] = tested on: adipose-derived mesenchymal stem cells; experiment: Adipose-derived MSC proliferation and cell size with nicotinamide with or without FGF4; type: cell-based, human; conditions: Cedex cell counter; 5 mM NAM, 50 ng/ml FGF4
Experimental: Cell number was measured using Cedex Automated Cell Counter (Innovatis). The cells were diluted 1:2 in Trypan Blue (Sigma) and cell number was measured automatically under microscope.

[3] = tested on: bone marrow mesenchymal stem cells; experiment: Growth factor secretion into conditioned medium (ELISA); type: cell-based, human; conditions: passage 4, 5 mM NAM, 50 ng/ml FGF4
Experimental: In some experiments, the adherent cells were cultured with or without nicotinamide and indicated factors, and 24 hours before passage 4, and the medium replaced with medium without fetal bovine serum or FGF4. Medium from MSC cultured as indicated, and depleted of fetal bovine serum and FGF4 24 hours before passage 4 was collected and assayed by ELISA for growth factors and immune-related factors secreted into the medium ([…] HGF, transforming growth factor beta TGF-β, keratinocyte growth factor KGF and interleukin 6 IL-6). ELISA was carried out using solid phase sandwich ELISA kits specific for human KGF (R&D systems, cat#DKG00), IL-6 (R&D systems, cat#D6050), TGF-β1 (R&D systems, cat#DB100B), HGF (R&D systems, cat#DHG00).

mesenchymal stem cells [4] = experiment: Large batch and serum batch MSC culture with nicotinamide (cell count); type: cell-based, human
Experimental: Cell number was measured using Cedex Automated Cell Counter (Innovatis). The cells were diluted 1:2 in Trypan Blue (Sigma) and cell number was measured automatically under microscope. Mesenchymal stem cells were isolated using plastic adherence method, as described above and cultured for several passages with fetal bovine serum, ±NAM. The cells were selected in the presence of NAM. At about 80% confluence, adherent cells were collected following trypsin treatment, counted, characterized and re-seeded at a concentration of 1×10^3 cells/cm^2.

mesenchymal stem cells [5] = experiment: In vitro wound healing assay; type: cell-based, human; conditions: passage 3, 4 days post wound formation
Experimental: Wound was performed in MSCs cultures at ˜70% confluence using 200 μl or 1000 μl tip. Four days later the cells were fixated using 10% cold Formalin (Sigma) and stained with Harris Hematoxylin (Sigma). The in-vitro wound healing process was evaluated using microscope.

[6] = tested on: umbilical cord-derived CD133+ hematopoietic stem cells; experiment: Differentiation and proliferation of ex-vivo cultured hematopoietic stem cells (FACS surface markers); type: cell-based
Experimental: Umbilical cord-derived hematopoietic stem cells were isolated using CD133 microbeads and CliniMACS® separator (Miltenyi, Inc. Auburn, Calif.), and cultured for 3 weeks in MEMα supplemented with 50 ng/ml TPO, IL6, SCF, Flt3, fetal bovine serum, ±2.5 or 5 mM nicotinamide, and/or 10, 50 or 200 ng/ml FGF4. After 3 weeks in culture the cells were stained for surface markers (CD38, CD133, CD33, CD19) and the cell populations determined by FACS analysis (see below). Results are expressed as percentage of total population assayed.
At different time points the cells were detached with 0.25% trypsin-EDTA. The cells were washed with a PBS solution containing 1% BSA, and stained (at 4° C. for 30 min) with either fluorescein isothiocyanate (FITC) or phycoerythrin (PE)-conjugated antibodies: 105 PE, 105 FITC (Serotec, Raleigh, N.C.), 45 FITC, 14 FITC, HLA-DR FITC, 106 PE, 31 PE (BD, Franklin Lakes N.J.), 34 PE (Dako, Glostrup, Denmark), 73 PE, HLA class1 PE, 49b PE (Pharmingen, San Diego, Calif.), 29 PE, 44 PE, 54 FITC, 59 PE, 90 PE (BioLegend, San Diego, Calif.). CD133—(AC141) PE (Miltenyi, Auburn, Calif.), CD38 FITC (Dako, Glostrup, Denmark), CD19 FITC (BD Biosciences, Franklin Lakes N.J.), CD33 FITC (BD Bioscience, Franklin Lakes N.J.).
The cells were then washed in the above buffer and analyzed using a FACScalibur® flow cytometer (Becton Dickinson, Franklin Lakes N.J.). The cells were passed at a rate of up to 1000 cells/second, using a 488 nm argon laser beam as the light source for excitation. Emission of 10000 cells was measured using logarithmic amplification, and analyzed using the CellQuest software (Becton Dickinson). Cells stained with FITC- and PE-conjugated isotype control antibodies were used to determine background fluorescence.
Umbilical cord-derived CD133+ hematopoietic stem cells were isolated and cultured for 3 weeks in medium supplemented with early-acting growth factors and fetal bovine serum, nicotinamide and/or FGF4. After 3 weeks in culture the cells were stained for surface markers (CD38, CD133, CD19) and the cell populations determined by FACS analysis. Cell proliferation was assessed by counting total cells at three weeks.

mesenchymal stem cells [7] = experiment: Expansion of mesenchymal stem cells with growth factors with and without nicotinamide (cumulative cell count); type: cell-based, human; conditions: NAM 5 mM, FGF4 50 ng/ml
Experimental: Bone marrow derived and adipose tissue derived mesenchymal cells were isolated based on their plastic adherence potential in expansion medium containing: High glucose DMEM and 10% Fetal Bovine Serum (FBS, Hyclone, Logan, Utah, USA) supplemented with 0.05 mg/ml Gentamicin (Sigma) and 2 mM L-glutamine (Biological Industries, Israel). Cells were allowed to adhere for 3-4 days and non-adherent cells were washed out with medium changes. The medium was further exchanged with fresh medium every 3-4 days.
Once adherent cells reached approximately 80-90% confluency, they were detached with 0.25% trypsin-EDTA (Sigma), washed twice in DMEM and 10% Fetal Bovine Serum, with centrifugation, 400 g, 5 minutes, and replated at a 1:2 to 1:1000 dilution under the same culture conditions.
Cell number was measured using Cedex Automated Cell Counter (Innovatis). The cells were diluted 1:2 in Trypan Blue (Sigma) and cell number was measured automatically under microscope. […]
Mesenchymal stem cells were selected and cultured in the presence of particular growth factors (basic fibroblast growth factor—bFGF, heparin binding epidermal growth factor—HB-EGF, fibroblast growth factor 4—FGF-4 and platelet derived growth factor, homodimer, subunit B, PDGF-BB) in the presence and absence of nicotinamide for three or four passages and the number and size of the cells was calculated. […]

NC(=O)c1cccnc1 [nicotinamide, Nicotinamide]
cumulative CFU-F count (mesenchymal stem cells [1]): increases the cumulative CFU-F count
prevalence of smaller size cells in adipose derived MSC cultures [2]: increased prevalence of smaller size cells
hepatocyte growth factor (HGF) in conditioned medium [3]: elevated levels
interleukin 6 (IL-6) secreted into conditioned medium [3]: reduced levels; also recorded: reduction
keratinocyte growth factor (KGF) in conditioned medium [3]: elevated levels
transforming growth factor beta (TGF-β) in conditioned medium [3]: elevated levels
effect on cell count in large batches of MSCs (mesenchymal stem cells [4]; large batch culture): evident on large batches
dependence of the proliferative effect on serum batch (mesenchymal stem cells [4]; one of two experiments): not dependent on a particular batch of serum
wound closure by MSCs (mesenchymal stem cells [5]): higher ability to perform wound closure
degree of differentiation of hematopoietic progenitor cells (CD38 and CD133-expressing fraction) ([6]; 3 weeks culture, nicotinamide 2.5 or 5 mM, FGF4 10 to 200 ng/ml): decreases significantly
fraction of undifferentiated early progenitors (CD38-CD133+) ([6]; 3 weeks, FIG. 35): significantly greater fraction
differentiation (CD38+ cells) ([6]; 3 weeks, FIG. 36): significant inhibition of differentiation
myeloid lineage differentiation (CD33+ cells) ([6]; 3 weeks, FIG. 37): significant inhibition
lymphoid lineage differentiation (CD19+ cells) ([6]; 3 weeks, FIG. 38): striking inhibition
abundance of committed myeloid or lymphoid cells (CD33, CD19) ([6]; three week cultures): consistently reduced the committed cell fraction
effect on the ability of FGF4 to increase proliferation of mesenchymal stem cells (mesenchymal stem cells [7]): potentiating effect
